Paper PMC12992618 (Nature Communications, 2026)

Legend:
[1] = molecular target: T1, BRAF (Homo sapiens, UniProt P15056, V600E); test: BRAF-IP kinase assay after […] h cell treatment; type: cell-based
T1 construct: endogenous BRAF immunoprecipitated from HCC364 cells

[2] = molecular target: T2, CRAF (Homo sapiens, UniProt P04049); test: CRAF-IP kinase assay after […] h cell treatment; type: cell-based
T2 construct: gene RAF1; endogenous CRAF immunoprecipitated from NCI-H1666 and NCI-H2405 cells
T2 sequence (P04049 whole entry): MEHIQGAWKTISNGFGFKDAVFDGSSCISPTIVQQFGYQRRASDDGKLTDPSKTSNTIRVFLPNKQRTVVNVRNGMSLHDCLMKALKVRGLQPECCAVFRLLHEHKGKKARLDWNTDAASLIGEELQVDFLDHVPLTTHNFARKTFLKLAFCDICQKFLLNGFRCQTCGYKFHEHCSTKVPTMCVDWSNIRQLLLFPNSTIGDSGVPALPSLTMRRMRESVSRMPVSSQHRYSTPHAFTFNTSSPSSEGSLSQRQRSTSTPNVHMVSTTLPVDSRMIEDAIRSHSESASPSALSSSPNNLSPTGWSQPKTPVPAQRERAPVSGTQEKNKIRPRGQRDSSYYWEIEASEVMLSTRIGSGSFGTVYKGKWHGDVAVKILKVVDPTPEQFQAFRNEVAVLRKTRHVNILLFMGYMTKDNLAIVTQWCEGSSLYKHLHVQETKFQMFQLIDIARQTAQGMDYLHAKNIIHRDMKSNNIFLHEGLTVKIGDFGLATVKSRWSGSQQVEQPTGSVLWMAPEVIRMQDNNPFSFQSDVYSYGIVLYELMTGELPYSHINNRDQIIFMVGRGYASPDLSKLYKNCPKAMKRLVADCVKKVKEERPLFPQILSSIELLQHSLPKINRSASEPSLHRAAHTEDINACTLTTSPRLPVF

T1 sequence (P15056 2-766 V600E): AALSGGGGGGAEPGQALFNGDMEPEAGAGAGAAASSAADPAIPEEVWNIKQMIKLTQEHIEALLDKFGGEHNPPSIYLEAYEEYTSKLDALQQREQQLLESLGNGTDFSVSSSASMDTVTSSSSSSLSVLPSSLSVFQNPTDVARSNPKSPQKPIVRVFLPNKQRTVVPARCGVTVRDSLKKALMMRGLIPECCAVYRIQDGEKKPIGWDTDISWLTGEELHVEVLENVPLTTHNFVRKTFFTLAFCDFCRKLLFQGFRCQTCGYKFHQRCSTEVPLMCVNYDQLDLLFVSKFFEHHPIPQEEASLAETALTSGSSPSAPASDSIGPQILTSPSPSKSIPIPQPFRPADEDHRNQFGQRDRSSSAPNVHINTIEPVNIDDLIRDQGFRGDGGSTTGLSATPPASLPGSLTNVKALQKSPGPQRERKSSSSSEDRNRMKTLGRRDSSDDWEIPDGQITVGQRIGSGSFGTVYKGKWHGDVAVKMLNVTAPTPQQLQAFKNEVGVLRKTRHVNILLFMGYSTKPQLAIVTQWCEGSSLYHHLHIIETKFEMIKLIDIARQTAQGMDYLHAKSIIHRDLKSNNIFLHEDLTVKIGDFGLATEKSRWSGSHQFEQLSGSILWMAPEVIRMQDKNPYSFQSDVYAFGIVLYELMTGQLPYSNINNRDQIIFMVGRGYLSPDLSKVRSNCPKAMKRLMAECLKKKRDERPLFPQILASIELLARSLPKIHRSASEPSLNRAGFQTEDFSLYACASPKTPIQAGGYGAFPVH

Cc1ccc2c(Nc3cccc(Cl)c3F)nccc2c1NC(=O)c1csc2c(N)ncnc12 [belvarafenib]
BRAF-IP kinase assay after 4 h cell treatment [1]: Exarafenib and belvarafenib exhibit potent inhibition of BRAF kinase activity in Class I and II BRAF mutations | CRAF-IP kinase assay after 4 h cell treatment [2]: baseline CRAF kinase activity was strongly detected in NCI-H1666 cells and was significantly inhibited by exarafenib and belvarafenib
